For 53 molecules, Ratio, Activity and inhibition results are on record in ChEMBL document CHEMBL5376006, “Discovery of a Hidden Pocket beneath the NES Groove by Novel Noncovalent CRM1 Inhibitors” (J Med Chem, 2023).

The source made the active and inactive calls. No cut-off for these calls is given here.

Experiment [1] concerns the target T1, Exportin-1 (Homo sapiens, UniProt O14980). Description: Inhibition of CRM1 (unknown origin) binding to GST-tagged NES PKI assessed as CRM1/NES band ratio incubated for 1.5 hrs by Coomassie brilliant blue staining based pull-down assay (reference value: 1.00). Also on record: concentration or dose not given beside the values.
The target in experiment [2] is T1, Exportin-1. The experiment can be described thus: Inhibition of CRM1 (unknown origin) binding to GST-tagged NES PKI assessed as CRM1/NES band ratio at 20 uM incubated for 1.5 hrs by Coomassie brilliant blue staining based pull-down assay.
The test system of the next experiment is HeLa. Description: Antiproliferative activity against human HeLa cells assessed as inhibition of cell growth at 20 uM incubated for 72 hrs by SRB assay. The format is functional, cell-based. On the technique in general: The SRB assay estimates cell density from bound dye.
Experiment [3] addresses T1, Exportin-1. Description: Inhibition of GFP-fused CRM1 cargo nuclear export in human HeLa cells at 200 uM incubated for 4 hrs by confocal microscopic analysis. The format is cell-based.
Experiment [4] has as its target T1, Exportin-1. The experiment can be described thus: Inhibition of CRM1 (unknown origin) binding to GST-tagged NES PKI at 100 uM incubated for 1.5 hrs by Coomassie brilliant blue staining based pull-down assay.
The target of experiment [5] is T1, Exportin-1. The experiment can be described thus: Inhibition of CRM1 cargo nuclear export in human MCF7 cells at 50 uM incubated for 4 hrs by confocal microscopic analysis. The format is cell-based.

T1 sequence (O14980 whole entry): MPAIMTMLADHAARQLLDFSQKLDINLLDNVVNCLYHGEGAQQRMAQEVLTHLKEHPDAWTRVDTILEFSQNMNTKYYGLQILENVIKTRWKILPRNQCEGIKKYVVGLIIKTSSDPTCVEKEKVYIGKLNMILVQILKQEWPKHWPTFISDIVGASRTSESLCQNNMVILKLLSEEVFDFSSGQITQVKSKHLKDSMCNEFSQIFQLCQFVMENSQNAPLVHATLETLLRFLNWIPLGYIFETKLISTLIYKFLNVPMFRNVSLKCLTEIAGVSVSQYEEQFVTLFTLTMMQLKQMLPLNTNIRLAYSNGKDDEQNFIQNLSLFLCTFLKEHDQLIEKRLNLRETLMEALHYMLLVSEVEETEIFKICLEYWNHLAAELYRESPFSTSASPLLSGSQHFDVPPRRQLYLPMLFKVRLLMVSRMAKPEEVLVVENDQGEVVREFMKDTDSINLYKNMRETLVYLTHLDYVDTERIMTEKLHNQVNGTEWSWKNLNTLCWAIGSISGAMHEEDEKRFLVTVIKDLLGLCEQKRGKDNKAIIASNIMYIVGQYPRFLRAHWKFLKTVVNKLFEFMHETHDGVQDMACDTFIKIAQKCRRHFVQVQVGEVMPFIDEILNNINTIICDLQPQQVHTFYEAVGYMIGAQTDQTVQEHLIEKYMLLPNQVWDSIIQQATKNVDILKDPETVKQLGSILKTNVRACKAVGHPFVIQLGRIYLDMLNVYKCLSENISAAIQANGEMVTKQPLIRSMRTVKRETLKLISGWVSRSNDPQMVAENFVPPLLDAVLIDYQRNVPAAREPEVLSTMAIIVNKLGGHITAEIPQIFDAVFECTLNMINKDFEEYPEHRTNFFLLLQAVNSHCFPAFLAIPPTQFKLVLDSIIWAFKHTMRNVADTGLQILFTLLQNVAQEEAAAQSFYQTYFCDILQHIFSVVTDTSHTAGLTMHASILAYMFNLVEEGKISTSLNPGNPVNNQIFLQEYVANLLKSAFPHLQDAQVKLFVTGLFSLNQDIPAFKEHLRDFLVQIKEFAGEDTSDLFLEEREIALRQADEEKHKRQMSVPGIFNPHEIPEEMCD

Take `Cc1cccc(C(=O)Nc2cc(C(=O)O)ccc2N2CCN(c3ccccc3F)CC2)c1`: at Exportin-1 [1], the Ratio was determined as 1.13.

With `O=C(O)c1ccc(N2CCN(c3ccccc3C(F)(F)F)CC2)c(NC(=O)c2ccc(Br)cc2)c1`, the Ratio on Exportin-1 [2] was determined as 0.28. Further, the result with HeLa was Active.

Take `O=C(O)c1ccc(N2CCN(c3cccc(C(F)(F)F)c3)CC2)c(NC(=O)c2ccc(F)cc2)c1`: at Exportin-1 [3], the inhibition entry was “inactive”. Further, the inhibition result on Exportin-1 [4] was “Active”. For the same molecule, the Ratio on Exportin-1 [1] was 0.28.

With `Cc1cccc(N2CCN(c3ccc(C(=O)O)cc3NC(=O)c3ccccc3)CC2C)c1` (centres undefined), on Exportin-1 [1], the Ratio was 0.81.

As for `O=C(O)c1ccc(N2CCCN(c3ccc(Cl)nn3)CC2)c(NC(=O)c2ccccc2)c1`, at Exportin-1 [1], the Ratio worked out at 0.8.

As for `O=C(O)c1ccc(N2CCN(c3ccc(F)cc3)CC2)c(NS(=O)(=O)c2cc(F)ccc2F)c1`, the Ratio on Exportin-1 [1] stood at 0.83.

`Cc1ccc(C)c(N2CCN(c3ccc(C(=O)O)cc3NC(=O)c3ccccc3C)CC2)c1`: at Exportin-1 [1], the Ratio turned out to be 1.09.

`COC(=O)c1ccc(N2CCN(c3cc(C(F)(F)F)ccc3C)CC2)c(NC(=O)c2ccc(Cl)cc2)c1`: on Exportin-1 [4], the inhibition result is “inactive”.

For `COC(=O)c1ccc(N2CCN(c3cc(C)ccc3C)CC2)c(NC(=O)c2ccc(Cl)cc2)c1`, at Exportin-1 [4], the inhibition entry was “inactive”.

For the molecule `O=C(O)c1ccc(N2CCN(c3cccc(C(F)(F)F)c3)CC2)c(NC(=O)c2ccc(Br)cc2)c1`, the Ratio at Exportin-1 [2] is 0.29. Also, the outcome with HeLa was Active.

For the molecule `Cc1cccc(C(=O)Nc2cc(C(=O)O)ccc2N2CCN(c3cccc(C)c3)C(C)C2)c1` (centres undefined), the Ratio at Exportin-1 [1] stood at 0.76.

Take `Cc1ccc(Cl)cc1N1CCN(c2ccc(C(=O)O)cc2NC(=O)c2ccc(C(F)(F)F)cc2)CC1`: the Ratio at Exportin-1 [2] came out at 0.35. In addition, the result in the experiment with HeLa was Active.

Turning to `Cc1ccc(Cl)cc1N1CCN(c2ccc(C(=O)O)cc2NC(=O)c2ccc(Cl)cc2)CC1`, the Ratio at Exportin-1 [2] was found to be 0.26. The outcome in the experiment on HeLa was Active.

`O=C(O)c1ccc(N2CCN(Cc3cccc(F)c3)CC2)c(NC(=O)c2ccccc2)c1`: the Ratio on Exportin-1 [1] is 0.72.

With `Cc1ccc(C(F)(F)F)cc1N1CCN(c2ccc(C(=O)O)cc2NC(=O)c2ccc(Cl)cc2)CC1`, at Exportin-1 [2], the Ratio is 0.2. Moreover, in the experiment with HeLa, the outcome was Active.

For the molecule `COC(=O)c1ccc(N2CCN(c3cc(Cl)ccc3C)CC2)c(NC(=O)c2ccc(Br)cc2)c1`, the inhibition entry on Exportin-1 [4] is “inactive”.

Regarding `COC(=O)c1ccc(N2CCN(c3cc(Cl)ccc3Cl)CC2)c(NC(=O)c2ccc(Cl)cc2)c1`, the inhibition entry at Exportin-1 [4] was “inactive”.

As for `Cc1cccc(S(=O)(=O)Nc2cc(C(=O)O)ccc2N2CCN(c3ccc(Cl)cc3)CC2)c1`, the Ratio at Exportin-1 [1] is 1.07.

With `O=C(O)c1ccc(N2CCN(c3cccc(F)c3)CC2)c(NC(=O)c2ccc(Cl)cc2)c1`, the Ratio on Exportin-1 [1] is 0.89.

On to `O=C(O)c1ccc(N2CCN(c3cccc(Cl)c3)CC2)c(NS(=O)(=O)c2cccc(F)c2)c1`, for which, on Exportin-1 [3], the inhibition result was “inactive”. For the same molecule, the Ratio on Exportin-1 [1] amounted to 0.43.

As to `O=C(O)c1ccc(N2CCN(CC(=O)N3CCCC3)CC2)c(NC(=O)c2ccccc2)c1`, the Ratio on Exportin-1 [1] was determined as 1.08.

For the molecule `COC(=O)c1ccc(N2CCN(c3cc(Cl)ccc3C)CC2)c(NC(=O)c2ccc(Cl)cc2)c1`, the inhibition entry at Exportin-1 [4] is “inactive”.

On to `O=C(O)c1ccc(N2CCN(C3CCCCC3)CC2)c(NC(=O)c2ccc(F)cc2)c1`, for which the Ratio at Exportin-1 [1] turned out to be 0.88.

Consider `COC(=O)c1ccc(N2CCN(c3cc(C(F)(F)F)ccc3C(F)(F)F)CC2)c(NC(=O)c2ccc(Br)cc2)c1`, for which the inhibition result at Exportin-1 [5] and on Exportin-1 [4] was “inactive” throughout.

Consider `O=C(O)c1ccc(N2CCC(N3CCCCC3)CC2)c(NC(=O)c2ccc(F)cc2)c1`, for which the Ratio at Exportin-1 [1] turned out to be 0.83.

For `Cc1ccc(Cl)cc1N1CCN(c2ccc(C(=O)O)cc2NC(=O)c2ccc(F)cc2)CC1`, at Exportin-1 [3], the inhibition entry is “inactive”. Further, the Ratio on Exportin-1 [1] worked out at 0.18.

`Cc1cccc(C(=O)Nc2cc(C(=O)O)ccc2N2CCC(CCN3CCCCC3)CC2)c1`: the Ratio at Exportin-1 [1] was 0.81.

In the case of `COC(=O)c1ccc(N2CCN(c3cc(Cl)ccc3C)CC2)c(NC(=O)c2ccc(C(F)(F)F)cc2)c1`, the inhibition result on Exportin-1 [4] was “inactive”.

As to `COC(=O)c1ccc(N2CCN(c3cc(C(F)(F)F)cc(C(F)(F)F)c3)CC2)c(NC(=O)c2ccc(Br)cc2)c1`, the inhibition entry at Exportin-1 [5] and on Exportin-1 [4] was “inactive” each time.

As to `COC(=O)c1ccc(N2CCN(c3cc(C(F)(F)F)ccc3C(F)(F)F)CC2)c(NC(=O)c2ccc(Cl)cc2)c1`, the inhibition result at Exportin-1 [5] and at Exportin-1 [4] was “inactive” in each case.

As for `COC(=O)c1ccc(N2CCN(c3cc(C(F)(F)F)ccc3Cl)CC2)c(NC(=O)c2ccc(Br)cc2)c1`, at Exportin-1 [4], the inhibition entry was “inactive”.

For `O=C(O)c1ccc(N2CCN(c3ccc(F)cc3)CC2)c(NS(=O)(=O)c2ccc(F)c(F)c2)c1`, at Exportin-1 [1], the Ratio turned out to be 0.88.

With `COC(=O)c1ccc(N2CCN(c3cccc(C(F)(F)F)c3)CC2)c(NC(=O)c2ccc(Br)cc2)c1`, the inhibition result at Exportin-1 [4] is “inactive”.

`O=C(O)c1ccc(N2CCN(c3ccccn3)CC2)c(NC(=O)c2cccc(Cl)c2)c1`: on Exportin-1 [1], the Ratio worked out at 0.72.

Take `O=C(O)c1ccc(N2CCN(c3ccc(F)cc3)CC2)c(NC(=O)c2ccc(F)cc2)c1`: the Ratio at Exportin-1 [1] is 1.15.

In the case of `O=C(O)c1ccc(N2CCN(c3cc(C(F)(F)F)ccc3Cl)CC2)c(NC(=O)c2ccc(Br)cc2)c1`, the Ratio on Exportin-1 [2] stood at 0.15. For the same molecule, the result in the experiment with HeLa was Active.

With `COC(=O)c1ccc(N2CCN(c3ccccc3C(F)(F)F)CC2)c(NC(=O)c2ccc(Br)cc2)c1`, the inhibition entry on Exportin-1 [4] was “inactive”.

`Cc1ccc(C)c(N2CCN(c3ccc(C(=O)O)cc3NC(=O)c3ccc(F)cc3)CC2)c1`: the Ratio on Exportin-1 [1] was 0.82.

For the molecule `O=C(O)c1ccc(N2CCN(c3ccc(F)cc3)CC2)c(NC(=O)c2ccc(Br)cc2)c1`, the Ratio on Exportin-1 [1] was 1.24.

For the molecule `COc1ccc(Cl)cc1N1CCN(c2ccc(C(=O)O)cc2NC(=O)c2ccc(Cl)cc2)CC1`, the Ratio on Exportin-1 [2] is 0.85. The outcome in the experiment on HeLa was Active.

In the case of `Cc1cccc(S(=O)(=O)Nc2cc(C(=O)O)ccc2N2CCN(c3ccc(F)cc3)CC2)c1`, on Exportin-1 [1], the Ratio turned out to be 0.84.

In the case of `O=C(O)c1ccc(N2CCN(c3ccc(F)cc3)CC2)c(NS(=O)(=O)c2cccc(F)c2)c1`, the Ratio on Exportin-1 [1] came to 0.85.

Consider `Cc1cccc(C(=O)Nc2cc(C(=O)O)ccc2N2CCC(N3CCCCC3)CC2)c1`, for which the Ratio at Exportin-1 [1] is 0.81.

As for `O=C(O)c1ccc(N2CCN(c3ccccn3)CC2)c(NC(=O)c2ccc(Cl)cc2)c1`, the Ratio at Exportin-1 [1] turned out to be 0.85.

With `Cc1ccc(C)c(S(=O)(=O)Nc2cc(C(=O)O)ccc2N2CCN(c3ccccc3F)CC2)c1`, the Ratio on Exportin-1 [1] came out at 0.95.

`Cc1ccc(C)c(S(=O)(=O)Nc2cc(C(=O)O)ccc2N2CCN(c3ccc(F)cc3)CC2)c1`: at Exportin-1 [1], the Ratio was 0.96.

As for `Cc1cccc(N2CCN(c3ccc(C(=O)O)cc3NC(=O)c3ccc(F)cc3)CC2C)c1` (centres undefined), at Exportin-1 [1], the Ratio was 0.87.

For `O=C(O)c1ccc(N2CCN(c3ccccc3F)CC2)c(NC(=O)c2ccc(Br)cc2)c1`, the Ratio on Exportin-1 [1] amounted to 0.68.

As for `O=C(O)c1ccc(N2CCN(c3cc(Cl)ccc3Cl)CC2)c(NC(=O)c2ccc(Cl)cc2)c1`, the Ratio on Exportin-1 [2] is 0.32. In addition, the result with HeLa was Active.

For the molecule `O=C(O)c1ccc(N2CCC(N3CCCCC3)CC2)c(NC(=O)c2cccc(Cl)c2)c1`, the Ratio at Exportin-1 [1] is 0.91.

For the molecule `COC(=O)c1ccc(N2CCN(c3cc(Cl)ccc3OC)CC2)c(NC(=O)c2ccc(Cl)cc2)c1`, the inhibition result at Exportin-1 [4] is “inactive”.

Turning to `Cc1ccc(Cl)cc1N1CCN(c2ccc(C(=O)O)cc2NC(=O)c2ccc(Br)cc2)CC1`, the Ratio on Exportin-1 [2] was 0.24. Further, the outcome with HeLa was Active.

As to `COc1ccccc1N1CCN(c2ccc(C(=O)O)cc2NC(=O)c2ccc(Cl)cc2)CC1`, the Ratio at Exportin-1 [1] came to 0.88.
